The text below walks through data of paper PMC10466336, “Chemical Probe for Imaging of Polo-like Kinase 4 and Centrioles” (JACS Au, 2023).

Assay [1] has as its target T1, 6xHis-tagged Plk4 kinase domain (KD) (Homo sapiens, UniProt O00444).
T1 construct: Plasmids encoding fragments of Plk4 kinase domain (2-275) with 6xHis-tag were cloned in pET system vectors; made in house; host or cells: E. coli BL21 gold (DE3)
T1 sequence (O00444 2-275): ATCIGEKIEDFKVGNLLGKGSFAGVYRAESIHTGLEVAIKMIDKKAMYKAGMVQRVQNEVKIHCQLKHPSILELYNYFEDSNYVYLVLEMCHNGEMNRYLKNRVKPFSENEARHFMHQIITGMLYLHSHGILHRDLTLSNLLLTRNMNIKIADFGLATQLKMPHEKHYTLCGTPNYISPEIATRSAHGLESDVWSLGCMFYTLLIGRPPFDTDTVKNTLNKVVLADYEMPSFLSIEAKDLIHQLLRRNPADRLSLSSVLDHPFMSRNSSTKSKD
Description: Estimation of fluorescence increase (fluorogenicity) with Plk4 kinase domain versus BSA. The text has this:
Moreover, we substituted the basic acetyl-piperazine nitrogen in compounds (1 and 2a) with an acetyl-piperidine, to avoid probe protonation and accumulation in endolysosomal compartments (Figure S1A, B).[23] This yielded a second generation of centrinone-based probes (compounds 2b–d). These probes were characterized first in vitro by measuring their fluorogenicity in the presence of the 6xHis-tagged Plk4 kinase domain (KD) (Table 1). […] Next, we measured the binding affinities of the probes to the Plk4 kinase domain via a competition binding assay based on fluorescence polarization. […]
1.3.5 Estimation of fluorescence increase
The probes were analysed as described in Lukinavičius et al. 2014 1. Briefly, SiR650 or SiR595- […]
purified Plk4 kinase domain (10 µM in 20 mM Tris, 200 mM NaCl at pH 7.5) or to a bovine serum albumin (BSA) (Sigma) solution (0.2 mg/mL in 20 mM Tris, 200 mM NaCl at pH 7.5). Final concentration of the probe was 3 µM. The samples were incubated for 1 h at 37 °C, and fluorescence was measured in a 96-well plate (Greiner Bio-One) on a plate reader (TECAN Spark® 20M).
Fluorescence emission was recorded from 570 nm to 750 nm for SiR595 probes, and 630 nm to 750 nm for SiR650 while exciting at 550 nm ± 10 nm for SiR595 probes and at 610 ± 10 nm for SiR650 probes.
A fluorescence excitation scan was recorded by measuring the emission at 660 ± 10 nm for SiR595 and 720 ± 10 nm for SiR650 probes, while exciting from 500 nm to 640 nm for SiR595 probes and from […]

For assay [2], the system named is HeLa Centrin1-GFP cells. Description: Plk4 foci scoring at different time points of Cen-TCO incubation. The assay is classed as cell-based, human. The settings on record: 500 nM. The protocol: We conjugated trans-cyclooctene to the previously obtained compound (4) to obtain Cen-TCO (3) using the synthetic route outlined in Scheme S2. The resulting Cen-TCO (3) reacted with an appropriate tetrazine, such as SiR650-TetH (4a) (Figure S4A). The reaction was followed by LC-MS, and the data confirmed quantitative conversion of Cen-TCO (3) to the appropriate cycloaddition product Cen-Click-SiR650 (Figure S4A, D). […] To assess the phenotype caused by Cen-TCO (3), we incubated HeLa cells expressing Centrin1-GFP with different concentrations of Cen-TCO (3) for 24 h, followed by scoring of Centrin1-GFP foci numbers (Figure S5B). […] Next, we tested Cen-TCO (3) in combination with different tetrazine partners to determine the optimal combination for our bio-orthogonal strategy. We used four different tetrazines to visualize overexpressed GFP-Plk4(K41M) in HeLa cells following 1 h of incubation with Cen-TCO (500 nM) (Figure S6). […] Furthermore, the high fluorogenicity of HD653 makes it particularly well suited for live cell imaging.[33] Therefore, the combination of Cen-TCO (3) and HD653 (5) was further used for live cell imaging of endogenous Plk4 (Figure 4A). HeLa cells expressing Centrin1-GFP were incubated with 500 nM Cen-TCO (3) for 1 h, followed by a 15 min incubation with 500 nM HD653 (5) and imaged with a confocal microscope without prior washing. Despite the high unspecific background signal, a clear focus could be detected at centrioles (Figure 4B). […] The fwhm of the circular signal in this case was 368 ± 26 (N = 6) (Figure S7B), which corresponds to the size measured with overexpressed GFP-Plk4(K41M) (see Figure 3D), and approximately that of the torus region surrounding the centriole.[40] […] To assess this and test whether early time points after Cen-TCO addition may be immune to this problem, HeLa Centrin1-GFP cells were incubated with Cen-TCO (3) and fixed at different time points thereafter, after which the number of centriolar Plk4 foci per cell was quantified (Figure S8B–F). […]

As for `COc1c(Nc2cc(C)[nH]n2)nc(Sc2ccc(S(=O)(=O)Cc3cccc([N+](=O)[O-])c3F)cc2F)nc1N1CCC(CC(=O)NCCNC(=O)c2ccc(C(=O)O)c(C3=C4C=CC(=N)C=C4[Si](C)(C)c4cc(N)ccc43)c2)CC1` [2d], the “increase in fluorescence upon binding” value in assay [1] (in presence of Plk4 KD versus BSA) is given as 36 fold. In addition, the FPIk4/FBSA in assay [1] (mean of F(+Plk4KD)/F(+BSA) and standard deviation, N = 3, probe 3 µM, 1 h 37 °C) is listed as 36 ± 1.

On to `COc1c(Nc2cc(C)[nH]n2)nc(Sc2ccc(S(=O)(=O)Cc3cccc([N+](=O)[O-])c3F)cc2F)nc1N1CCC(CC(=O)NCCNC(=O)OC2CC/C=C/CCC2)CC1` (centres unmarked) [compound 3], for which the figures for the “effect on Plk4 foci numbers” value in assay [2] (after 1 h of incubation) and in assay [2] (up to 4 h of incubation) were “no perturbation” and “only minor perturbations”, respectively. The “effect on Plk4 foci numbers around centrioles” value in assay [2] (after 4 h) is “significant increase”.
